Data from article PMC9781217, “Discovery of Novel and Selective G-Protein Coupled Receptor 120 (GPR120) Agonists for the Treatment of Type 2 Diabetes Mellitus” (Molecules, 2022).
“Also recorded” adds a separate entry of the source. Like-named read-outs stand apart in the source and are kept apart here.

Assays:
human GPR120 (hGPR120) = target: T1, human GPR120 (hGPR120) (Homo sapiens, UniProt Q5NUL3); experiment: Calcium flux assay in hGPR120-transfected CHO cells; conditions: for Selectivity: hGPR120 over hGPR40
T1 sequence (Q5NUL3 1-361): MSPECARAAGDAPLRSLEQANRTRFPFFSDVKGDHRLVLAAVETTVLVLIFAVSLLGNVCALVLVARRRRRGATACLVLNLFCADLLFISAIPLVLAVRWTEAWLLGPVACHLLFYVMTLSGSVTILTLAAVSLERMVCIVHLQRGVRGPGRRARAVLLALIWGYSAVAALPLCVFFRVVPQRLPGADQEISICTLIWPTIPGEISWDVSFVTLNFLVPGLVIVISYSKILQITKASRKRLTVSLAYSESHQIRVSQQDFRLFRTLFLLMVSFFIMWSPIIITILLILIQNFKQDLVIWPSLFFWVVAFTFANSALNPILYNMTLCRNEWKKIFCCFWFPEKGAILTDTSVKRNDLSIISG
Experimental: (§1) A calcium flux assay was performed to assess the agonist activity of the test compounds against the hGPR120 (mGPR120) and hGPR40 (mGPR40) receptors. […] The medium in the wells was gently discarded, and the wells were washed with Hank’s balanced salt solution (HBSS; 100 μL per well). […] The cells were then washed thrice in HBSS and allowed to equilibrate for 10 min before conducting the assay. Test compounds dissolved in dimethyl sulfoxide were diluted in HBSS at various concentrations and added to Fluo-4 AM-containing cells, and intracellular Ca^2+ concentrations were measured using FlexStation3 Molecular Devices. The EC50 value of each compound was calculated using GraphPad Prism software (version 5.0; GraphPad Software, San Diego, CA, USA).

human GPR40 (hGPR40) = human GPR40 (hGPR40) (Homo sapiens, UniProt O14842); experiment: Calcium flux assay in hGPR40-expressing CHO cells
Chain of human GPR40 (hGPR40) (O14842 whole entry): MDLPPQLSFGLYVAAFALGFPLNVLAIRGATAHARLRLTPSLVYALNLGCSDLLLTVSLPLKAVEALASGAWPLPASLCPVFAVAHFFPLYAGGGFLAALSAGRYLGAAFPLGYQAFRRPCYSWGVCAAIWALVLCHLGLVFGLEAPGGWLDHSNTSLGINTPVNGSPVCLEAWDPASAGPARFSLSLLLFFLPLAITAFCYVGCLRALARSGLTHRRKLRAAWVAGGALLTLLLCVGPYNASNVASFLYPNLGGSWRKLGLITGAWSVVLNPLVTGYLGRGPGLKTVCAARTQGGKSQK
Experimental: as §1

GPR40 = tested on: GPR40; set-up: method as in ref 15-26 = [15]; PMID 22519963; doi:10.1021/jm300215x; 15. Shimpukade B. Hudson B.D. Hovgaard C.K. Milligan G. Ulven T. Discovery of a potent and selective GPR120 agonist J. Med. Chem. 2012 55 4511 4515 10.1021/jm300215x 22519963 || [16]; PMID 24881566; doi:10.1016/j.bmcl.2014.05.012; 16. Sparks S.M. Chen G. Collins J.L. Danger D. Dock S.T. Jayawickreme C. Jenkinson S. Laudeman C. Leesnitzer M.A. Liang X. Identification of diarylsulfonamides as agonists of the free fatty acid recep || [17]; PMID 27570890; doi:10.1021/acs.jmedchem.6b00685; 17. Azevedo C.M. Watterson K.R. Wargent E.T. Hansen S.V. Hudson B.D. Kepczynska M.A. Dunlop J. Shimpukade B. Christiansen E. Milligan G. Non-Acidic Free Fatty Acid Receptor 4 Agonists with Antidiabeti || [18]; PMID 27815121; doi:10.1016/j.bmcl.2016.10.054; 18. Lombardo M. Bender K. London C. Kirkland M. Mane J. Pachanski M. Geissler W. Cummings J. Habulihaz B. Akiyama T.E. Discovery of benzofuran propanoic acid GPR120 agonists: From uHTS hit to mechanis || [19]; PMID 28105282; doi:10.1021/acsmedchemlett.6b00394; 19. Adams G.L. Velazquez F. Jayne C. Shah U. Miao S. Ashley E.R. Madeira M. Akiyama T.E. Di Salvo J. Suzuki T. Discovery of Chromane Propionic Acid Analogues as Selective Agonists of GPR120 with in Vi; conditions: Figure 1, representative GPR120 agonists; cited from earlier work
[1] = Pharmacokinetic analysis in C57BL/6 mice; type: in vivo; conditions: C57BL/6 mice
Experimental: The pharmacokinetic profiles of 10k and 14d were obtained from C57BL/6 mice. […] The pharmacokinetic profiles traces were shown in the Supplementary Materials (Figure S1, see Supporting Materials).
Plasma was collected and precipitated using two volumes of acetonitrile containing an internal standard. This was followed by centrifugation at 15.680 g for 10 min after vortexing for 5 min. The supernatant was diluted with acetonitrile and 10 µL of the supernatant was analyzed by Waters LC-PDA-MS/MS to determine plasma drug levels. Pharmacokinetic parameters were determined using mean data from four mice at each time point. Statistical analysis of the data was performed using the DAS 2.1.1 statistical software program (BioVoice, Shanghai, China).

[2] = read-out: hGPR120 (EC50), calcium flux, hGPR120 CHO cells, mean of three determinations
[3] = read-out: hGPR40 (EC50), calcium flux, hGPR40 CHO cells, mean of three determinations

With `Cc1ccc(-c2ccc(F)cc2OCc2ccc(OCCCC(=O)O)c(C)c2)cc1` [Compound 10g, 4-(4-(((4-fluoro-4′-methyl-[1,1′-biphenyl]-2-yl)oxy)methyl)-2-methylphenoxy)butanoic acid] the EC50 (human GPR120 (hGPR120)) was 380 nM.

For `Cc1ccc(-c2ccc(F)cc2OCc2ccc(OCCCC(=O)O)cc2)cc1` [Compound 10c, 4-(4-(((4-fluoro-4′-methyl-[1,1′-biphenyl]-2-yl)oxy)methyl)phenoxy)butanoic acid], the melting point was 106 to 108 °C, the EC50 (human GPR40 (hGPR40)) was 113000 nM and the EC50 (human GPR120 (hGPR120)) was 129 nM. The Selectivity (human GPR120 (hGPR120)) was 875.6.

Work on `Cc1ccc(-c2ccc(F)cc2OCc2ccc(OCCCC(=O)O)c(F)c2)c(Cl)c1` [Compound 14m, 4-(4-(((2′-chloro-4-fluoro-4′-methyl-[1,1′-biphenyl]-2-yl)oxy)methyl)-2-fluorophenoxy)butanoic acid] yielded a melting point of 105 to 107 °C, an EC50 (human GPR40 (hGPR40)) of 78600 nM and an EC50 (human GPR120 (hGPR120)) of 187 nM. For the same compound, the Selectivity (human GPR120 (hGPR120)) was 419.6.

“4-(2-fluoro-4-(((4-fluoro-3′,5′-dimethyl-[1,1′-biphenyl]-2-yl)oxy)methyl)phenoxy)butanoic acid [Compound 14h]” showed an EC50 (human GPR120 (hGPR120); [2]) of 422 nM.

In the case of `O=C(O)CC1CCC2(CC1)CCN(c1cc(OC(F)(F)F)ccc1Cl)CC2` [Compound 2], the EC50 (GPR40) is given as over 10000 nM.

Work on `COc1ccc(-c2ccc(F)cc2OCc2ccc(OCCCC(=O)O)c(F)c2)cc1` [Compound 14e, 4-(2-fluoro-4-(((4-fluoro-4′-methoxy-[1,1′-biphenyl]-2-yl)oxy)methyl)phenoxy)butanoic acid] yielded a melting point of 103 to 105 °C and an EC50 (human GPR120 (hGPR120)) of 260 nM.

`Cc1ccccc1-c1ccc(F)cc1OCc1ccc(OCCCC(=O)O)c(F)c1` [Compound 14a, 4-(2-fluoro-4-(((4-fluoro-2′-methyl-[1,1′-biphenyl]-2-yl)oxy)methyl)phenoxy)butanoic acid] gave a melting point of 83 to 85 °C, an EC50 (human GPR40 (hGPR40)) of 68500 nM and an EC50 (human GPR120 (hGPR120)) of 90.4 nM. For the same compound, the Selectivity (human GPR120 (hGPR120)) was 757.7.

In the case of `Cc1ccc(-c2ccc(F)cc2OCc2ccc(OCCCCC(=O)O)c(C)c2)cc1` [Compound 10h, 5-(4-(((4-fluoro-4′-methyl-[1,1′-biphenyl]-2-yl)oxy)methyl)-2-methylphenoxy)pentanoic acid], the EC50 (human GPR120 (hGPR120)) is reported as 206 nM.

With “4-(4-(((2′,4-difluoro-4′-methoxy-[1,1′-biphenyl]-2-yl)oxy)methyl)-2-fluorophenoxy)butanoic acid [Compound 14l]” the EC50 (human GPR40 (hGPR40); [3]) was 90800 nM, the Selectivity (human GPR120 (hGPR120)) was 665.2 and the EC50 (human GPR120 (hGPR120); [2]) was 136 nM.

Compound “4-(2-fluoro-4-(((4-fluoro-2′,4′-dimethyl-[1,1′-biphenyl]-2-yl)oxy)methyl)phenoxy)butanoic acid [Compound 14f]” has an EC50 (human GPR40 (hGPR40); [3]) of 103000 nM, a Selectivity (human GPR120 (hGPR120)) of 604.0 and an EC50 (human GPR120 (hGPR120); [2]) of 170 nM.

Compound `Cc1ccc(-c2ccc(F)cc2OCc2ccc(OCCCC(=O)O)c(F)c2)c(C)c1` [Compound 14i] has an EC50 (human GPR40 (hGPR40)) of 95100 nM, an EC50 (human GPR120 (hGPR120)) of 159 nM and a Selectivity (human GPR120 (hGPR120)) of 600.0.

With `Cc1ccc(-c2ccc(F)cc2OCc2ccc(OCCCC(=O)O)c(F)c2)cc1` [Compound 10k, 4-(2-fluoro-4-(((4-fluoro-4′-methyl-[1,1′-biphenyl]-2-yl)oxy)methyl)phenoxy)butanoic acid] the “metabolic stability in vivo” value ([1]; pharmacokinetics, in words) was “higher metabolic stability than TUG-891; also recorded: excellent metabolic stability”, the Tmax ([1]; male, mouse, plasma, po, 10 mg/kg gavage) was 30 min and the Cmax ([1]; male, mouse, plasma, po, 10 mg/kg gavage, 0.5% MC, mean ± SD of four mice) was 2370 ± 335 ng/mL. It also gave an AUC ([1]; male, mouse, plasma, po, 10 mg/kg gavage, mean ± SD of four mice) of 4250 ± 577 ng·h/mL, a half-life ([1]; male, mouse, plasma, po, 10 mg/kg gavage, mean ± SD of four mice, read-out: t1/2 (converted)) of 66 ± 18 min and a melting point of 130 to 132 °C. The EC50 (human GPR40 (hGPR40)) was 74300 nM, the EC50 (human GPR120 (hGPR120)) was 57.6 nM and the Selectivity (human GPR120 (hGPR120)) was 1289.9.

Work on `Cc1ccc(-c2ccc(F)cc2OCc2ccc(OCCCCC(=O)O)c(F)c2)cc1` [Compound 10l, 5-(2-fluoro-4-(((4-fluoro-4′-methyl-[1,1′-biphenyl]-2-yl)oxy)methyl)phenoxy)pentanoic acid] yielded an EC50 (human GPR40 (hGPR40)) of 94700 nM and an EC50 (human GPR120 (hGPR120)) of 96.8 nM.

`O=C(O)CCCOc1ccc(COc2cc(F)ccc2-c2ccccc2F)cc1F` [Compound 14c, 4-(4-(((2′,4-difluoro-[1,1′-biphenyl]-2-yl)oxy)methyl)-2-fluorophenoxy)butanoic acid] showed a melting point of 94 to 96 °C and an EC50 (human GPR120 (hGPR120)) of 168 nM.

Work on `Cc1ccc(-c2ccc(F)cc2OCc2ccc(OCC(=O)O)c(C)c2)cc1` [Compound 10e, 2-(4-(((4-fluoro-4′-methyl-[1,1′-biphenyl]-2-yl)oxy)methyl)-2-methylphenoxy)acetic acid] yielded a melting point of 128 to 130 °C, an EC50 (human GPR40 (hGPR40)) of 141000 nM and an EC50 (human GPR120 (hGPR120)) of 138 nM. It also gave a Selectivity (human GPR120 (hGPR120)) of 1019.5.

For `Cc1ccc(-c2ccc(F)cc2OCc2ccc(OCC(=O)O)c(F)c2)cc1` [Compound 10i, 2-(2-fluoro-4-(((4-fluoro-4′-methyl-[1,1′-biphenyl]-2-yl)oxy)methyl)phenoxy)acetic acid], the melting point was 90 to 92 °C, the EC50 (human GPR40 (hGPR40)) was 87200 nM and the EC50 (human GPR120 (hGPR120)) was 77.2 nM. The Selectivity (human GPR120 (hGPR120)) was 1129.5.

`Cc1ccc(-c2ccc(F)cc2OCc2ccc(OCCCCC(=O)O)cc2)cc1` [Compound 10d, 5-(4-(((4-fluoro-4′-methyl-[1,1′-biphenyl]-2-yl)oxy)methyl)phenoxy)pentanoic acid] showed a melting point of 124 to 126 °C, an EC50 (human GPR40 (hGPR40)) of 144000 nM and an EC50 (human GPR120 (hGPR120)) of 103 nM. It also gave a Selectivity (human GPR120 (hGPR120)) of 1391.5.

`Cc1cccc(-c2ccc(F)cc2OCc2ccc(OCCCC(=O)O)c(F)c2)c1` [Compound 14b, 4-(2-fluoro-4-(((4-fluoro-3′-methyl-[1,1′-biphenyl]-2-yl)oxy)methyl)phenoxy)butanoic acid] gave an EC50 (human GPR40 (hGPR40)) of 93200 nM and an EC50 (human GPR120 (hGPR120)) of 82.5 nM.

Compound `Cc1ccc(-c2ccc(F)cc2OCc2ccc(OCCC(=O)O)cc2)cc1` [Compound 10b, 3-(4-(((4-fluoro-4′-methyl-[1,1′-biphenyl]-2-yl)oxy)methyl)phenoxy)propanoic acid] has a melting point of 120 to 122 °C and an EC50 (human GPR120 (hGPR120)) of 218 nM.

Compound `Cc1ccc(-c2ccc(F)cc2OCc2ccc(OCCC(=O)O)c(C)c2)cc1` [Compound 10f, 3-(4-(((4-fluoro-4′-methyl-[1,1′-biphenyl]-2-yl)oxy)methyl)-2-methylphenoxy)propanoic acid] has a melting point of 125 to 127 °C and an EC50 (human GPR120 (hGPR120)) of 268 nM.

For `Cc1ccc(-c2ccc(F)cc2OCc2ccc(OCC(=O)O)cc2)cc1` [Compound 10a, 2-(4-(((4-fluoro-4′-methyl-[1,1′-biphenyl]-2-yl)oxy)methyl)phenoxy)acetic acid], the melting point was 164 to 166 °C, the EC50 (human GPR40 (hGPR40)) was 76200 nM and the EC50 (human GPR120 (hGPR120)) was 92.4 nM. The Selectivity (human GPR120 (hGPR120)) was 824.7.

Work on `Cc1ccc(-c2ccc(F)cc2OCc2ccc(OCCCC(=O)O)c(F)c2)c(F)c1` [Compound 14n, 4-(4-(((2′,4-difluoro-4′-methyl-[1,1′-biphenyl]-2-yl)oxy)methyl)-2-fluorophenoxy)butanoic acid] yielded a melting point of 92 to 94 °C and an EC50 (human GPR120 (hGPR120)) of 313 nM.

With `Cc1ccc(-c2ccc(F)cc2OCc2ccc(OCCC(=O)O)c(F)c2)cc1` [Compound 10j, 3-(2-fluoro-4-(((4-fluoro-4′-methyl-[1,1′-biphenyl]-2-yl)oxy)methyl)phenoxy)propanoic acid] the EC50 (human GPR40 (hGPR40)) was 85500 nM and the EC50 (human GPR120 (hGPR120)) was 112 nM.
